One series relates to endothelial cell line. The conditions noted are these: prior SAR study (12); cited from earlier work.
The test system of series [1] is DUSP6/MKP-3 and DUSP1/MKP-1. The settings on record: HeLa cells, prior study (12); cited from earlier work.
The subject of series [2] is zebrafish embryos. The experiment in a line: ROS generation in zebrafish embryos (DHE). The format is in vivo. The settings on record: developing zebrafish embryos, 48 hpf. The method, then: All procedures involving zebrafish were reviewed and approved by the University of Pittsburgh Institutional Animal Care and Use Committee. Wildtype AB* embryos were kept in E3 medium (5 mM NaCl, 0.17 mM KCl, 0.33 mM CaCl2, 0.33 mM MgSO4). At 48 hours post fertilization (hpf), embryos were arrayed into the wells of a 96 well microplate and treated with vehicle (0.5% DMSO) or test agents. After a 30-min pre-incubation, embryos were labeled with a solution of 10 μM DHE and 40 μg/mL MS222 (tricaine methanesulfonate, Sigma) in E3 to restrict movement during imaging. Six hours after DHE loading, embryos were imaged on an ArrayScan II using a 2.5× objective. Images were analyzed for oxyethidium fluorescence with the TargetActivation Bioapplication using the MEAN_ObjectAvgIntenCh1 parameter.

Series [3] relates to MDA-MB-231 cells. The experiment in a line: Immune cell killing (sensitization to PBMC-derived LAK). The format is cell-based, human. On the procedure:
Peripheral blood mononuclear cells were obtained from healthy volunteers with an established IRB approved protocol, separated from heparinized blood on Ficoll-hypaque (GE Healthcare, Chicago) gradients as previously reported (16). Cells were cultured in RPMI 1640 supplemented with 10% FCS, 1% glutamine, 1% penicillin/streptomycin, and stimulated with 6,000 IU of Interleukin 2 for 24 hours. After incubation, cells were washed with PBS and counted. In parallel, MBA-MB-231 cells were pre-treated in a 384 well plate with vehicle or BCI-215 (3 μM). After 24 hours in culture, medium was replaced and PBMC added in two-fold serial dilutions starting with a 50-fold excess of PBMCs in triplicate. After 24 hours of co-culture, cells were fixed with formaldehyde/Hoechst 33342, washed twice with PBS, and imaged on the ArrayScan II. Cancer cells were identified by their larger nuclei compared with PBMC, setting a size gate in the DAPI channel. In experiments with chemotherapeutics, cells carrying a biosensor consisting of a mitochondrial targeting sequence derived from cytochrome c oxidase VIII linked to GFP that is a surrogate for cytochrome c release from mitochondria (17) were pre-treated for 24 hours with cisplatin (2 μM) or doxorubicin (400 nM), exposed to LAK as above, and cancer cells identified and quantified by green fluorescence. Cell densities were normalized to those in the absence of PBMCs. Mean cell densities from multiple independent experiments were averaged and plotted in GraphPad Prism.

Series [4] concerns zebrafish embryos. The settings on record: prior SAR study (12); cited from earlier work.
The test system of series [5] is MDA-MB-231 cells. As to the kind of experiment: HCA of cell motility and cytotoxicity (Oris Pro 384 cell migration plate). The format is cell-based, human. The conditions noted are these: 48 hours, at antimigratory concentrations. The method, then:
HCA of cell motility and cytotoxicity was performed essentially as described (51). MDA-MB-231 cells (15,000/well) were plated in collagen-coated Oris™ Pro 384-well microplates (Platypus Technologies cat # PRO384CMACCS) containing a chemical exclusion zone that dissolves upon cell seeding. Two hours after plating, medium was removed, and cells treated with ten-point, two-fold concentration gradients of test agents. Forty-eight hours after treatment, cells were stained with 10 μg/ml Hoechst 33342 and 1 μg/ml PI in HBSS for 15 min at 37° C. Plates were washed once with PBS and scanned live on the ArrayScan II using a 5× objective. To capture cells that had entered into the exclusion zone, a single field was acquired in the center of the well and nuclei therein enumerated. To assess changes in cell loss, nuclear size, and necrotic cell death, a second scan was performed that captured one field at the edge of the well (51). Parameters exported and plotted were SelectedObjectCountPerValidField (cell density), MEAN ObjectAreaCh1 (nucleus size), and % RESPONDER MeanAvgIntenCh2 (percent PI positive cells based on based on a threshold set with vehicle treated cells).

Series [6] has as its system MDA-MB-231 cells. The experiment in a line: Colony formation in three dimensional matrigel culture. The format is cell-based, human. The method, then:
MDA-MB-231 cells (2000/well) transduced with a biosensor consisting of EGFP with a mitochondrial targeting sequence derived from cytochrome-C oxidase subunit VIII (52) were trypsinized, resuspended in RPMI1640 containing 2% FBS and 2% matrigel, and seeded in 384 well microplates on a 15 μl cushion of undiluted matrigel. After 24 hours, cells were treated with various concentrations of BCI-215 or vehicle (0.2% DMSO). After two days, drug was washed out and cells allowed to expand for an additional three to five days. At the end of the study, medium was replaced with HBSS containing 4 μg/ml PI for 1 hour, and plates scanned live on an ImageXpress Ultra HCS reader, acquiring z-stacks (4× objective, 20 planes, 50 μm) in the green and red channels. Cell numbers were quantified from maximum projection images using the Multiwavelength Cell Scoring application.

For series [7], the system named is MDA-MB-231 cells. As to the kind of experiment: Detection and quantitation of ROS in cancer cells (CM-H2-DCFDA). The format is cell-based, human. The settings on record: 50 μM. The method, then: Detection and quantitation of ROS in cancer cells was performed as described before (14). Briefly, MDA-MB-231 cells were labeled with Hoechst 33342, loaded with CM-H2-DCFDA (5 μM, 15 min), and treated with test agents for 10 min. After two washes, cells were analyzed for Hoechst and ROS/FITC fluorescence on the ArrayScan II. Cells were classified as positive for ROS if their average FITC intensity exceeded a threshold defined as the average FITC intensity plus one SD from DMSO-treated wells.

The test system of series [8] is MDA-MB-231 cells. The experiment in a line: BCI-215 toxicity in the presence of doxorubicin. The format is cell-based, human. The conditions noted are these: doxorubicin 5 μM pre-treated 2-3 hours. On the procedure:
FIG. 9. Reduced toxicity of BCI-215 in the presence of doxorubicin. MDA-MB-231 carrying the mitochondrial-targeted, GFP-labeled cytochrome C biosensor were treated for 2-3 hours with vehicle (DMSO) or doxorubicin (5 μM) before being exposed to concentration gradients of BCI-215 for 20 h. Plates were scanned live on an ImageXpress high content reader at 20× magnification and GFP positive cells enumerated. Cell densities were normalized to vehicle or doxorubicin alone, respectively. Data are the averages ±SD from three independent experiments, each performed in quadruplicate.

The subject of series [9] is ERK, JNK/SAPK, p38, MEK1 and MKK4/SEK1 phosphorylation. The experiment in a line: Western blot of MAPK cascade phosphorylation. The format is cell-based, human. The conditions noted are these: 20 μM. (A western blot detects proteins with antibodies after separation by electrophoresis.)

On to `O=C1/C(=C/c2ccccc2)C(NC2CCCCC2)c2cc(Br)ccc21` (centres unmarked) [BCI-215], for which, in the series on endothelial cell line, the “toxicity to an endothelial cell line” value is listed as “non-toxic”. Further, in series [1], the “effect on ectopic DUSP6/MKP-3 and DUSP1/MKP-1 expression” value is given as “override the effects”. In addition, in the series on zebrafish embryos [2], the “generation of ROS in zebrafish embryos (DHE)” value was “does not Generate Reactive Oxygen Species”. Besides, the “difference in killing versus vehicle” value with MDA-MB-231 cells [3] (BCI-215 3 μM pre-treatment versus vehicle) is “well over three log differences in killing”. Besides, the “LAK number at maximal sensitization” value in the series on MDA-MB-231 cells [3] (MDA-MB-231 pre-treated with BCI-215 3 μM for 24 hours) was found to be 1000 LAK/well. Moreover, the “sensitization to LAK activity” value in the series with MDA-MB-231 cells [3] (pre-treated 24 hours: BCI-215 3 μM, cisplatin 2 μM, doxorubicin 400 nM) is “sensitization at lower effector ratios than cisplatin or doxorubicin”. In addition, in the series with zebrafish embryos [4], the “toxicity to zebrafish embryos” value is given as “non-toxic”. In addition, in the series with MDA-MB-231 cells [5], the “necrosis (% PI positive cells)” value is listed as “no signs of necrosis”. For the same compound, the “cell lysis (PI positivity)” value in the series on MDA-MB-231 cells [6] (longer-term 3D matrigel assay) is given as “pronounced cell lysis”. In the series on MDA-MB-231 cells [6] (matrigel-on-top model, two days of exposure then washout), the colony formation result was “inhibited colony formation”. Besides, in the series with MDA-MB-231 cells [7], the “ROS generation at 50 μM” value is on record as “did not generate ROS”. In addition, the “toxicity of BCI-215 after doxorubicin pre-treatment (cell numbers)” value in the series on MDA-MB-231 cells [8] is listed as “reduced the toxicity of BCI-215”. Moreover, the “activation of upstream kinases MEK1 and MKK4/SEK1” value in series [9] (MDA-MB-231, BT-20 and HeLa, 1 hour) is “activated MEK1 and MKK4/SEK1”. In addition, the “activation (phosphorylation) of ERK, JNK/SAPK and p38” value in series [9] (MDA-MB-231 cells) is “activated all three kinases”.

Source of the values: US20190358176A1, “METHODS OF SENSITIZING CANCER CELLS TO IMMUNE CELL KILLING” (University of Pittsburgh - of the Commonwealth System of …, priority 2017, published 2019).
